# Source: US20250381198A1 (Melt Pharmaceuticals, Inc., priority 2024, published 2025)
# Marks after values point to notes of the source that are not given here.
# Tested on: subjects undergoing cataract extraction with lens replacement (CELR)
# Test: Phase 3: adverse events (safety analysis set)
# Assay type: in vivo, human
# Method: The safety of MELT-300 was performed at baseline, in the course of surgery (intraoperatively), postoperatively on Day 1, and on Day 3+1 day post dose of study medication. Safety assessment included monitoring of AEs, vital sign measurements, and physical examinations.
# An overview of adverse events (AEs) is provided in TABLE 57 for the safety analysis set. Reported data includes an overall summary of the presence of any AEs, treatment-emergent ocular adverse events (TEAEs), treatment-related TEAEs, TEAE of special interest (TEAESI), serious AEs (SEAs), and treatment-emergent SAEs (TESAE). Categories were not mutually exclusive. Results include the number of subjects, percent of subjects, and number of events in each category, respectively. A summary of treatment-emergence adverse events (TEAEs) by location, system organ class, and preferred term for the safety analysis set is provided in TABLE 58. A summary of treatment-related treatment-emergent adverse events (TRTEAEs) by system organ class, and preferred term for the safety analysis set is provided in TABLE 59. No SAEs (overall), TESAEs, or treatment-related TESAEs were observed. No SAEs resulting in death or discontinuation of the study was observed.
# [1] = Location: Ocular, Safety analysis set
# [2] = Location: Overall, Safety Analysis Set
# [3] = Location: Overall, Safety analysis set
structure (smiles),measurement,setting,value
"Cc1ncc2n1-c1ccc(Cl)cc1C(c1ccccc1F)=NC2 [Midazolam, 8-chloro-6-(2-fluorophenyl)-1-methyl-4H-imidazo[1,5-a][1,4]benzodiazepine]","Any Unexpected Treatment-Related TEAE, subjects",[1],0 n (%)
same,"TEAESI: Abuse-related AEs, events",[1],0 #
same,"TEAESI: Abuse-related AEs, subjects",[1],0 n (%)
same,"TEAESI: Cardiovascular AEs, events",[1],0 #
same,"TEAESI: Cardiovascular AEs, subjects",[1],1 (1.1) n (%)
same,"TEAESI: Ketamine emergence delirium, events",[1],0 #
same,"TEAESI: Ketamine emergence delirium, subjects",[1],0 n (%)
same,"TEAESI: Neurocognitive AEs, events",[1],0 #
same,"TEAESI: Neurocognitive AEs, subjects",[1],0 n (%)
same,"TEAESI: Oral/pharyngeal AEs, events",[1],0 #
same,"TEAESI: Oral/pharyngeal AEs, subjects",[1],0 n (%)
same,"TEAESI: Oversedation requiring the use of flumazenil, events",[1],0 #
same,"TEAESI: Oversedation requiring the use of flumazenil, subjects",[1],0 n (%)
same,"TEAESI: Respiratory AEs, events",[1],0 #
same,"TEAESI: Respiratory AEs, subjects",[1],1 (1.1) n (%)
same,TEAE: Abnormal sensation in eye,[2],0 n
same,TEAE: Amnesia,[2],0 n
same,TEAE: Anxiety,[2],0 n
same,TEAE: Back pain,[2],0 n
same,TEAE: Balance disorder,[2],0 n
same,TEAE: Blood pressure increased,[2],0 n
same,TEAE: Blood pressure systolic increased,[2],0 n
same,TEAE: Bradycardia,[2],0 n
same,TEAE: Corneal abrasion,[2],0 n
same,TEAE: Corneal oedema,[2],0 n
same,TEAE: Cough,[2],0 n
same,TEAE: Dental local anaesthesia,[2],0 n
same,TEAE: Diplopia,[2],0 n
same,TEAE: Dizziness,[2],0 n
same,TEAE: Fatigue,[2],0 n
same,TEAE: Gastrointestinal disorders (System Organ Class),[2],0 n
same,TEAE: Glare,[2],0 n
same,TEAE: Hiccups,[2],0 n
same,TEAE: Hypertension,[2],0 n
same,TEAE: Hypoaesthesia oral,[2],0 n
same,TEAE: Infections and infestations (System Organ Class),[2],0 n
same,"TEAE: Injury, poisoning and procedural complications (System Organ Class)",[2],0 n
same,TEAE: Instillation site pain,[2],0 n
same,TEAE: Investigations (System Organ Class),[2],0 n
same,TEAE: Lacrimation increased,[2],0 n
same,TEAE: Lethargy,[2],0 n
same,TEAE: Musculoskeletal and connective tissue disorders (System Organ Class),[2],0 n
same,TEAE: Myalgia,[2],0 n
same,TEAE: Nasal Discomfort,[2],0 n
same,TEAE: Nausea,[2],0 n
same,TEAE: Neck pain,[2],0 n
same,TEAE: Ocular discomfort,[2],0 n
same,TEAE: Oxygen saturation decreased,[2],0 n
same,TEAE: Photophobia,[2],0 n
same,TEAE: Photopsia,[2],0 n
same,TEAE: Post procedural hypotension,[2],0 n
same,TEAE: Procedural nausea,[2],0 n
same,TEAE: Procedural pain,[2],0 n
same,TEAE: Procedural vomiting,[2],0 n
same,TEAE: Product after taste,[2],0 n
same,TEAE: Product issues (System Organ Class),[2],0 n
same,TEAE: Psychiatric disorders (System Organ Class),[2],0 n
same,TEAE: Pyrexia,[2],0 n
same,TEAE: Sinusitis,[2],0 n
same,TEAE: Surgical and medical procedures (System Organ Class),[2],0 n
same,TEAE: Taste disorder,[2],0 n
same,TEAE: Vascular disorders (System Organ Class),[2],0 n
same,TEAE: Visual field defect,[2],0 n
same,TEAE: Visual impairment,[2],0 n
same,"Any AE, events",[3],24 #
same,"Any AE, subjects",[3],16 (18.0) n (%)
same,"Any Grade 3+ TEAE, events",[3],0 #
same,"Any Grade 3+ TEAE, subjects",[3],0 n (%)
same,"Any SAE, events",[3],0 #
same,"Any SAE, subjects",[3],0 n (%)
same,"Any TEAE Resulting in Death, events",[3],0 #
same,"Any TEAE Resulting in Death, subjects",[3],0 n (%)
same,"Any TEAE Resulting in Study Drug Interruption, events",[3],0 #
same,"Any TEAE Resulting in Study Drug Interruption, subjects",[3],0 n (%)
same,"Any TEAE Resulting in Study Drug Withdrawal, events",[3],0 #
same,"Any TEAE Resulting in Study Drug Withdrawal, subjects",[3],0 n (%)
same,"Any TEAE, events",[3],20 #
same,"Any TEAE, subjects",[3],13 (14.6) n (%)
same,"Any TEAESI, events",[3],2 #
same,"Any TEAESI, subjects",[3],2 (2.2) n (%)
same,"Any TESAE, events",[3],0 #
same,"Any TESAE, subjects",[3],0 n (%)
same,"Any Treatment-Related TEAE Resulting in Death, events",[3],0 #
same,"Any Treatment-Related TEAE Resulting in Death, subjects",[3],0 n (%)
same,"Any Treatment-Related TEAE, events",[3],4 #
same,"Any Treatment-Related TEAE, subjects",[3],2 (2.2) n (%)
same,"Any Treatment-Related TEAESI, events",[3],1 #
same,"Any Treatment-Related TEAESI, subjects",[3],1 (1.1) n (%)
same,"Any Treatment-Related TESAE, events",[3],0 #
same,"Any Treatment-Related TESAE, subjects",[3],0 n (%)
same,"Any Unexpected TEAE, events",[3],9 #
same,"Any Unexpected TEAE, subjects",[3],6 (6.7) n (%)
same,"Any Unexpected Treatment-Related TEAE, events",[3],0 #
same,"Any Unexpected Treatment-Related TEAE, subjects",[3],0 n (%)
same,"TEAESI: Abuse-related AEs, events",[3],0 #
same,"TEAESI: Abuse-related AEs, subjects",[3],0 n (%)
same,"TEAESI: Cardiovascular AEs, events",[3],1 #
same,"TEAESI: Cardiovascular AEs, subjects",[3],1 (1.1) n (%)
same,"TEAESI: Ketamine emergence delirium, events",[3],0 #
same,"TEAESI: Ketamine emergence delirium, subjects",[3],0 n (%)
same,"TEAESI: Neurocognitive AEs, events",[3],0 #
same,"TEAESI: Neurocognitive AEs, subjects",[3],0 n (%)
same,"TEAESI: Oral/pharyngeal AEs, events",[3],0 #
same,"TEAESI: Oral/pharyngeal AEs, subjects",[3],0 n (%)
same,"TEAESI: Oversedation requiring the use of flumazenil, events",[3],0 #
same,"TEAESI: Oversedation requiring the use of flumazenil, subjects",[3],0 n (%)
same,"TEAESI: Respiratory AEs, events",[3],1 #
same,"TEAESI: Respiratory AEs, subjects",[3],1 (1.1) n (%)
same,Treatment-related TEAE: Anxiety,Safety Analysis Set,0 n
same,Treatment-related TEAE: Blood pressure increased,Safety Analysis Set,0 n
same,Treatment-related TEAE: Bradycardia,Safety Analysis Set,0 n
same,Treatment-related TEAE: Cardiac disorders (System Organ Class),Safety Analysis Set,0 n
same,Treatment-related TEAE: Dental local anaesthesia,Safety Analysis Set,0 n
same,Treatment-related TEAE: Dizziness,Safety Analysis Set,0 n
same,Treatment-related TEAE: Eye disorders (System Organ Class),Safety Analysis Set,0 n
same,Treatment-related TEAE: Hiccups,Safety Analysis Set,0 n
same,"Treatment-related TEAE: Injury, poisoning and procedural complications (System Organ Class)",Safety Analysis Set,0 n
same,Treatment-related TEAE: Investigations (System Organ Class),Safety Analysis Set,0 n
same,Treatment-related TEAE: Lethargy,Safety Analysis Set,0 n
same,Treatment-related TEAE: Oxygen saturation decreased,Safety Analysis Set,0 n
same,Treatment-related TEAE: Procedural nausea,Safety Analysis Set,0 n
same,Treatment-related TEAE: Procedural vomiting,Safety Analysis Set,0 n
same,Treatment-related TEAE: Product after taste,Safety Analysis Set,0 n
same,Treatment-related TEAE: Product issues (System Organ Class),Safety Analysis Set,0 n
same,Treatment-related TEAE: Psychiatric disorders (System Organ Class),Safety Analysis Set,0 n
same,Treatment-related TEAE: Surgical and medical procedures (System Organ Class),Safety Analysis Set,0 n
same,Treatment-related TEAE: Tachycardia,Safety Analysis Set,0 n
same,Treatment-related TEAE: Visual impairment,Safety Analysis Set,0 n
